Laboratory results: PMC8631675, “Neuroprotective effects of some epigenetic modifying drugs’ on Chlamydia pneumoniae-induced neuroinflammation: A novel model” (PLoS ONE, 2021)
Read-outs that look alike come from different tables or passages of the source.

Columns and labels:
CD11b = assay: Active microglia marker CD11b in HMC3 cells by flow cytometry; type: cell-based, human; conditions: 24 hours, control 10.1%
Experimental: HMC3 microglia cells were seeded in 12-well plates at a density of 75x10^3 cells per well and treated with treatment groups for 24 h. Then, cells were detached and centrifuged with Cell Staining Buffer (BioLegend, USA, Cat. No: 420201) for 5 minutes and the supernatant was discarded. Blocking was performed with 5 μl Human TruStain Fcx (BioLegend, USA, Cat. No: 422302) Fc receptor blocker solution diluted in 100 μl Cell Staining Buffer for 10 minutes at room temperature to reduce non-specific binding. The blocker was removed by centrifugation and the cells were stained with 5 μl PE anti-mouse/human CD11b Antibody (BioLegend, USA, Cat. No: 101208) diluted 1:5 in 20 μl Cell Staining Buffer for 15 minutes on ice in the dark. Then, the cells were washed 2 times with 2 ml Cell Staining Buffer and analyzed within 500 μl buffer using the BD Accuri ™ C6 flow cytometer.

TNF-α gene expression = assay: RT-PCR TNF-α gene expression in HMC3 microglia cells; type: cell-based, human; conditions: 24 h
Experimental: (§1) LPS and/or proinflammatory cytokines like IFN-ɣ, have been used alone or in combination in most in vitro neuroinflammation models to study microglial activation. Therefore, the effects of lyophilized cell free supernatant (CFS)+IFN-ɣ combination, which was determined to increase IL-1β and CD218a cytokine levels most effectively, on IL-1β, TNF-α and IL-8 gene expressions were compared with LPS+IFN-ɣ combination in order to determine the activation concentration.
(§2) RNA isolations were performed in MagNA Pure Compact System (Roche, Germany) using MagNA Pure Compact RNA Isolation Kit® (Catalog No: 04802993001, Roche, Germany) after 24-h. The total RNA amounts of the samples were measured at 260 and 280 nm in the NanoDrop 2000® (Thermo Fisher, USA) spectrophotometer. cDNA was obtained using the Transcriptor High Fidelity cDNA Synthesis Kit® (Catalog no: 05091284001, Roche, Germany) following the kit protocol from […] RNA of each sample. After the cDNA samples were replicated by PCR method, the expression levels were determined with the LightCycler® 480 Real-Time PCR System (Roche, Germany) using the IL-1β, TNF-α and IL-8 primers (PRZ BioTech, Turkey). Actin beta (ACTB) was used as a housekeeping gene. Primer sequences and RT-PCR cycling conditions are shown in S1 and S2 Tables. Results were analyzed according to the changes in the amplification levels compared to the control group with the analysis software of the instrument.

IL-8 gene expression = assay: RT-PCR IL-8 gene expression in HMC3 microglia cells; type: cell-based, human; conditions: 24 h
Experimental: as §1, §2

SH-SY5Y cell = tested on: SH-SY5Y cell; set-up: method as in PMID 31837307, PMID 32087283; conditions: LPS alone; cited from earlier work
IL-1β gene expression = assay: RT-PCR IL-1β gene expression in HMC3 microglia cells; type: cell-based, human; conditions: 24 h
Experimental: as §1, §2

[1] = tested on: differentiated SH-SY5Y cells; assay: Cell proliferation (cytotoxicity) analysis with xCELLigence, SH-SY5Y; type: cell-based, human
Experimental: (§3) Cell proliferation analysis was performed with xCELLigence Real-Time Cell Analysis System to assess TSA, RG108, givinostat, and rifampin concentrations for use in both models. Differentiated SH-SY5Y and HMC3 microglia cells were seeded at a 5x10^3 density per well and incubated 24 h until CI values reached a log phase. The system stopped at the end of 24 h, 100, 10 and 1 μM TSA, givinostat, RG108 and rifampin were applied on current media and the cell viability was tracked. […] Simultaneously, slope plots were drawn using the CI values at 24 and 48 hours, and the statistical significance of the values discovered by assuming the average CI values of the control wells to be 100% was calculated.

motor neurons = tested on: motor neurons; set-up: method as in PMID 23900692; conditions: inhibiting DNMT catalytic activity; cited from earlier work
[2] = tested on: differentiated SH-SY5Y cells; assay: Cell viability against Aβ-induced neurotoxicity, xCELLigence; type: cell-based, human; conditions: 24 h pretreatment (drugs 100 nM; CFS 1 μg/ml + IFN-γ; LPS 100 ng/ml + IFN-γ), then 5 μM Aβ (1–42) aggregates 24 h
Experimental: Pathological deterioration in AD is mainly associated with overproduction of the Aβ peptide and the Aβ (1–42) variant is the toxic form that is more predominant in Alzheimer’s patients. In this study, a modified oligomeric Aβ (1–42) neurotoxicity analysis protocol was applied in order to elucidate the effects of treatment groups on SH-SY5Y cell viability in the presence of Aβ [56]. In order to model Aβ-induced neurotoxicity in vitro, an oligomeric form of the Aβ1–42 peptide was prepared by diluting with ice-cold Ham’s F12 Nutrient Mixture medium dissolved in PBS containing 0.02 M NaOH at a final concentration of 50 μM and kept in a 37°C incubator for 7 days to form peptide aggregates prior to the experiments. 5x10^3 SH-SY5Y cells were differentiated inside the xCELLigence instrument for 5 days and treated with 100 nM TSA, RG108, givinostat, rifampin; 100 ng/ml LPS+IFN-ɣ or 1 μg/ml CFS+IFN-ɣ for 24 h in order to evaluate neuroprotection. The co-culture was performed in the same way as the neuroinflammation model. Neurotoxicity was obtained instead of neuroinflammation by diluting to 5 μM with fresh medium and adding Aβ1–42 aggregates to the wells for 24 h in 100 μl of medium. Cell viability data was then monitored for 24 h and analyzed within the instrument.

HMC3 microglia cells = assay: Cell proliferation (cytotoxicity) analysis with xCELLigence, HMC3; type: cell-based, human
Experimental: as §3

[3] = tested on: differentiated SH-SY5Y cells; assay: Annexin V-PI staining of Aβ-induced cell death, flow cytometry; type: cell-based, human; conditions: pretreatment (drugs 100 nM; LPS 100 ng/ml + IFN-γ; CFS 1 μg/ml + IFN-γ) + 5 μM Aβ 24 h
Experimental: To determine neuronal apoptosis associated with Aβ exposure, 25x10^3 differentiated SH-SY5Y cells were seeded in 24-well plates and Aβ was applied. After 24 h, cells were trypsinized and staining was performed according to the CF 488A Annexin V and PI Apoptosis Kit (Biotium, USA, Cat. No: 30061) protocol. After washing the cells with 1xPBS, the working solution was prepared by diluting the PI with Annexin V binding buffer included in the kit. 5 μl Annexin V and 2 μl PI working solution were added to the centrifuge tubes and binded with 100 μl Annexin V binding buffer. After the samples were incubated for 30 minutes on ice and in the dark, 400 μl of Annexin V binding buffer was added to each tube and the samples were measured and analyzed in a BD Accuri™ C6 flow cytometry device.

SH-SY5Y cells = assay: Total ROS/Superoxide detection; type: cell-based, human
Experimental: The Total ROS/Superoxide Detection Kit (ENZ-51010, Enzo) was used according to the kit process for evaluating the protective effects of the treatment groups on SH-SY5Y cells seeded at a 2x10^4 density per well in 96-well plates and Aβ was applied. ROS inhibitor N-acetyl cysteine (NAC) was applied at 5 mM concentration to negative control groups 30 minutes before the experiment and after incubation, 100 μL of “ROS/Superoxide Detection Solution” was added to the wells in the kit. The same procedure was done without the application of ROS inhibitor. Fluorometric analysis of stained cells was analyzed with Cytation 3 Cell Imaging Multi-Mode Reader (BioTek) using 490/525 nm and 550/620 nm filter sets.

[4] = HMC3, 100 ng/ml + 10 ng/ml IFN-ɣ
[5] = HMC3, 10 ng/ml + 10 ng/ml IFN-ɣ

## lipopolysaccharide [LPS]
CD11b; [4]
  CD11b antibody levels (positive gate V-R): 42.4%
CD11b; HMC3, 1 μg/ml + 10 ng/ml IFN-ɣ
  CD11b antibody levels (positive gate V-R): 23%
TNF-α gene expression; [5]
  TNF-α expression level compared to the control group: 1.55 fold
TNF-α gene expression; [4]
  TNF-α expression level compared to the control group: 1.41 fold
TNF-α gene expression; HMC3, 1 μg/ml + 10 ng/ml IFN-ɣ
  TNF-α expression level compared to the control group: 0.82 fold
IL-8 gene expression; [5]
  IL-8 expression level compared to the control group: 3.07 fold
IL-8 gene expression; [4]
  IL-8 expression level compared to the control group: 3.88 fold
IL-8 gene expression; HMC3, 1 μg/ml + 10 ng/ml IFN-ɣ
  IL-8 expression level compared to the control group: 13.64 fold
SH-SY5Y cell
  Effect on SH-SY5Y cell viability: no effect
IL-1β gene expression; [5]
  IL-1β expression level compared to the control group: 1.64 fold
IL-1β gene expression; [4]
  IL-1β expression level compared to the control group: 3.21 fold
IL-1β gene expression; HMC3, 1 μg/ml + 10 ng/ml IFN-ɣ
  IL-1β expression level compared to the control group: 1.83 fold

## O=C(O)C(Cc1c[nH]c2ccccc12)N1C(=O)c2ccccc2C1=O (stereo not shown) [RG108]
[1]; 1 μM, 24 hours
  Reduction of differentiated SH-SY5Y cell viability: 21.98%
[1]; 1 μM, 48 hours
  Reduction of differentiated SH-SY5Y cell viability: 15.47%
[1]; 10 μM, 24 hours
  Reduction of differentiated SH-SY5Y cell viability: 43.73%
[1]; 10 μM, 48 hours
  Reduction of differentiated SH-SY5Y cell viability: 33.89%
[1]; 100 μM, 24 hours
  Reduction of differentiated SH-SY5Y cell viability: 64.03%
[1]; 100 μM, 48 hours
  Reduction of differentiated SH-SY5Y cell viability: 53.43%
[1]; from CI values at 24th hour, 1, 10 and 100 μM tested, read-out: IC50 Values 24h SH-SY5Y
  IC50: 1.49 µM
[1]; from CI values at 48th hour, 1, 10 and 100 μM tested, read-out: IC50 Values 48h SH-SY5Y
  IC50: 9.6 µM
Motor neurons
  Effect on motor neurons: protect motor neurons from excessive DNA methylation and apoptosis
[2]
  CI values compared to the control group: 120.7%
HMC3 microglia cells; 10 μM, 24 hours
  Reduction of HMC3 cell viability compared to the control group: 3.12%
HMC3 microglia cells; 10 μM, 48 hours
  Reduction of HMC3 cell viability compared to the control group: 8.33%
HMC3 microglia cells; 100 μM, 24 hours
  Reduction of HMC3 cell viability compared to the control group: 43.26%
HMC3 microglia cells; 100 μM, 48 hours
  Reduction of HMC3 cell viability compared to the control group: 57.56%
HMC3 microglia cells; from CI values at 24th hour, 1, 10 and 100 μM tested, read-out: IC50 Values 24h HMC3
  IC50: > 400 µM
HMC3 microglia cells; from CI values at 48th hour, 1, 10 and 100 μM tested, read-out: IC50 Values 48h HMC3
  IC50: > 400 µM
[3]; control 1.6%
  Necrotic effect (Q5-UL): 6.6%
[3]; control 1.9%
  Apoptotic effect (early apoptosis + late apoptosis): 4.3%
[3]; control 96.5%
  Percentage of living cells (Live): 89.1%
SH-SY5Y cells; 30 minutes NAC 5 mM, treated (drugs 100 nM; LPS 100 ng/ml; CFS 1 μg/ml, with IFN-γ) prior to Aβ exposure
  Increase of total amount of ROS compared to the control group, with NAC: 4.29%
SH-SY5Y cells; cells treated (drugs 100 nM; LPS 100 ng/ml; CFS 1 μg/ml, with IFN-γ) before exposure to Aβ, without NAC
  Decrease of total ROS amount according to the Aβ group: 52.61%
SH-SY5Y cells; cells treated with compounds (100 nM) before exposure to Aβ, without NAC
  Decrease of total amount of ROS compared to the control group: 9.03%
